Our source for the IC50 values is ChEMBL document CHEMBL2331103, “Synthesis of a novel series of 2-alkylthio substituted naphthoquinones as potent acyl-CoA: cholesterol acyltransferase (ACAT) inhibitors” (Eur J Med Chem, 2013).

Molecules are shown by their SMILES.

One may read the IC50 as the concentration at which inhibition is half-maximal.

This test addresses T1, Sterol O-acyltransferase 1 (Homo sapiens, UniProt P35610).
T1 sequence (P35610 whole entry): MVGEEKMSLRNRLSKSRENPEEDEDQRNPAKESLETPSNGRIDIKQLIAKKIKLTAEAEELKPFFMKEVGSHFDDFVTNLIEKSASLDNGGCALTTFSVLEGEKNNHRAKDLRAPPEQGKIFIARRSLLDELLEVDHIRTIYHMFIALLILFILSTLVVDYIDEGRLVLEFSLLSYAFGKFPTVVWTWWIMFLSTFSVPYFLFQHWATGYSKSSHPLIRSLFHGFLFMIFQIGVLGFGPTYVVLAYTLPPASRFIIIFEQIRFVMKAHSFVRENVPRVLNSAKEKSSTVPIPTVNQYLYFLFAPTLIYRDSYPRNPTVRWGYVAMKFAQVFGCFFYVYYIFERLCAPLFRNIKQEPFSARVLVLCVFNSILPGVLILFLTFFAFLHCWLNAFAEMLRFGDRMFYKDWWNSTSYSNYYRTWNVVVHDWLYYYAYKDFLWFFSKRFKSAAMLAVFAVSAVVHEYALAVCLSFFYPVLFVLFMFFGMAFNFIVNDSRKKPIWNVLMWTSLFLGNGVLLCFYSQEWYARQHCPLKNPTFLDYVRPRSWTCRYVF
Briefly: Inhibition of human macrophage ACAT expressed in human HepG2 cells using [14C]oleoyl-CoA as substrate incubated for 20 mins prior to substrate addition measured after 25 mins by liquid scintillation counting analysis. Type of test: cell-based.
`CCCCCCCCCCCSC1=CC(=O)c2ccccc2C1=O` registered an IC50 of 8.67 µM.

On to `CCCCCCCCCCCCCCC[S+]([O-])C1=CC(=O)c2ccccc2C1=O` (stereo not given), for which the midpoint of inhibition, the IC50, lay at 56.6 µM.

For the compound `CCS(=O)(=O)C1=CC(=O)c2c(OC)ccc(OC)c2C1=O`, the half-inhibitory concentration (IC50) was > 100 µM.

With `CCCS(=O)(=O)C1=CC(=O)c2c(OC)ccc(OC)c2C1=O`, the concentration for half-maximal inhibition (IC50) is > 100 µM.

As to `CCCCCCCCCCCS(=O)(=O)C1=CC(=O)c2c(OC)ccc(OC)c2C1=O`, the IC50 was 3.4 µM.

In the case of `CCCCCCCCCCCCCCCS(=O)(=O)C1=CC(=O)c2c(OC)ccc(OC)c2C1=O`, the 50% inhibitory concentration (IC50) was found to be 5.8 µM.

`CSC1=CC(=O)c2ccccc2C1=O` had a 50% inhibitory concentration (IC50) of 2.82 µM. This IC50 lies about 2.1-fold lower than the previous one.

`CCCSC1=CC(=O)c2ccccc2C1=O` registered an IC50 of 5.08 µM.

With `CCCCSC1=CC(=O)c2ccccc2C1=O`, the half-maximal inhibitory concentration (IC50) came out at 7.87 µM.

For `CCCCCSC1=CC(=O)c2ccccc2C1=O`, half-maximal inhibition (IC50) was put at 8.19 µM.

`CCCCCCCCSC1=CC(=O)c2ccccc2C1=O` displayed an IC50 of 6 µM.

In turn, `CCCCCCCCCSC1=CC(=O)c2ccccc2C1=O` registered an IC50 of 1.63 µM.

For the compound `CCCCCCCCCCCCSC1=CC(=O)c2ccccc2C1=O`, 1.66 µM corresponded to half-maximal inhibition (IC50).

`CCCCCCCCCCCCCCCSC1=CC(=O)c2ccccc2C1=O`: the IC50 turned out to be 4.13 µM.

`CCCCCCCCCCCCCCCCCCSC1=CC(=O)c2ccccc2C1=O` yielded an IC50 of 1.45 µM. This IC50 lies about 2.8-fold lower than the previous one.

Compound `C[S+]([O-])C1=CC(=O)c2ccccc2C1=O` (stereo not given) showed a half-inhibitory concentration (IC50) of 5.66 µM.

Compound `CCCCCCCCC[S+]([O-])C1=CC(=O)c2ccccc2C1=O` (stereo not given) returned an IC50 of 5.47 µM.

As for `COc1ccc(OC)c2c1C(=O)C=C([S+](C)[O-])C2=O` (stereo not given), the IC50 was > 100 µM.

`CCCCCCCCCC[S+]([O-])C1=CC(=O)c2c(OC)ccc(OC)c2C1=O` (stereo not given) registered a half-maximal inhibitory concentration (IC50) of 8.4 µM.

For `CCCCCCCCCCC[S+]([O-])C1=CC(=O)c2c(OC)ccc(OC)c2C1=O` (stereo not given), the IC50 is 1.1 µM. This IC50 lies about 7.6-fold lower than the previous one.

The compound `CCCCCCCCCCCC[S+]([O-])C1=CC(=O)c2c(OC)ccc(OC)c2C1=O` (stereo not given) showed a half-maximal inhibitory concentration (IC50) of 2.4 µM. This IC50 lies about 2.2-fold higher than the previous one.

As to `CCCCCCCCCCCCCCCCCC[S+]([O-])C1=CC(=O)c2c(OC)ccc(OC)c2C1=O` (stereo not given), the half-inhibitory concentration (IC50) is > 100 µM.

Regarding `COc1ccc(OC)c2c1C(=O)C=C(S(C)(=O)=O)C2=O`, the IC50 was > 100 µM.

The compound `CCSC1=CC(=O)c2ccccc2C1=O` had a half-maximal inhibitory concentration (IC50) of 7.51 µM.

With `CC(C)CNC(=O)/C=C/C=C/CCCC/C=C/c1ccc2c(c1)OCO2` [RETROFRACTAMIDE B], the IC50 amounted to 3.7 µM.
